Assay: Agilent ZORBAX 300 SB-C18, 150 × 1 mm, 3.5 µm; A: water + 0.01% heptafluorobutyric acid; B: acetonitrile + 0.01% heptafluorobutyric acid; gradient (min/%B) 0/0 100/90
Settings: stereoisomer not certain

Structure (SMILES) | LC retention time [min]
Cc1ccc(NC(=O)c2ccc(N)cc2)cc1 | 10.9
Cc1nc2c(ccc3ccccc32)c(C)c1C | 10.9
CC(C)c1ccccc1NC(=O)c1cc2ccccc2o1 | 15.9
CC(=O)NC(NC(C)=O)NC(C)=O | 1.91
C(=NNc1nncc2ccccc12)c1cccnc1 | 8.37
OC(Cn1cccc1)c1ccccc1 (centres undefined) | 11.8
CN1CCCNCC1 | 6.55
CCCCC1(C)NC(=S)N(c2ccc(C)cc2)N1 (centres undefined) | 15.1
CCCc1ccc(O)c(N)c1 | 8.64
Cn1c(C(C)(C)C)nc(N)nc1=O | 7.21
Cc1ccc(C)n1-c1ccccc1C(=O)O | 12.1
OCc1ccccc1CNC1CCCCC1 | 8.87
CC(=O)N1CCc2[nH]c3ccccc3c2C1 | 10.2
c1ccc(-c2nc3ccccc3[nH]2)cc1 | 9.01
Cc1ccncc1 | 6.26
CNCCNC | 6.51
O=c1[nH]c2ccccc2c(=O)n1CCO | 7.39
Cc1sc(C)c(CNCC(C)C)c1CNCC(C)C | 8.93
Cc1cc(C)[nH]n1 | 6.99
Cn1c(=O)n(C)c2cc(N3CCCCC3)c(N)cc21 | 8.49
Nc1cccc(S(=O)(=O)O)c1 | 1.45
CC(=O)Oc1c[nH]c2ccccc12 | 11.6
CC(C)(C)c1ccc(-c2nc3ccccc3s2)cc1 | 21.3

Structure (SMILES) | LC retention time [min]
Cc1ccsc1C=CC(=O)c1ccc2ccccc2c1 | 18.5
Cc1c(O)c(=O)ccn1C | 6.47
CCN(CC)CCCN | 6.92
CCCCCC[N+](C)(C)Cc1ccccc1 | 10.7
O=C(O)c1c(-c2ccccc2)c(-c2ccccc2)n[nH]c1=O | 9.72
O=c1[nH][nH]c(=O)n1-c1ccc2c(c1)OCO2 | 6.9
Nc1cc(=O)[nH]c(=S)n1C1CCCC1 | 8.94
CCCNCCN | 7
NCCc1ccccn1 | 6.83
Cc1cccnc1CN1CCN(Cc2ncccc2C)CC1 | 7.69
c1ccc(-n2c3c(c4ccccc42)CCCC3)cc1 | 21.2
CC(CCc1ccc(O)cc1)NCCc1ccc(O)c(O)c1 (centres undefined) | 8.94
COCCCN | 5.72
CCN1CCN(Cc2cc(C)cc(C=O)c2C)CC1 | 9.37
CC(=O)NC(Cc1c[nH]c2ccccc12)C(N)=O (centres undefined) | 7.8
COC(=O)c1ccc(Cn2c(=O)n(C)c(=O)c3ccccc32)cc1 | 13.1
CCCNC(=O)Nc1ccc2c(c1)oc1ccccc12 | 14
CCCCN1CCCC1 | 7.55
O=C(Cn1cnc2ccccc2c1=O)NN=Cc1cnc2ccccc2n1 | 10.1
COC(=O)C1C2CC3c4[nH]c5cc(OC)ccc5c4CCN3CC2CC(OC(=O)c2cc(OC)c(OC)c(OC)c2)C1OC (centres undefined) | 12.4
C=CCNc1ccccc1 | 9.55
CCNCC | 5.17
Cn1c(=O)c2n[nH]c(=S)nc2n(C)c1=O | 7.17

Structure (SMILES) | LC retention time [min]
CC(C)CC1(C)NC(=S)N(c2ccccc2)N1 (centres undefined) | 14.1
CC1(C)CC(=O)C=C(NCC2NCCc3ccccc32)C1 (centres undefined) | 8.52
Nc1cccc2cc3ccccc3nc12 | 8.34
Cc1oc(C)c(C(N)=O)c1C(N)=O | 6.82
Cc1cccc(Oc2cc(C)nc3ccc(C)cc23)c1 | 11.8
O=C(O)c1cc(-c2ccccc2)c(C(=O)O)cn1 | 6.42
Cn1c(C(=O)N2CCN(C(c3ccccc3)c3ccccc3)CC2)cc(=O)n(C)c1=O | 11.7
S=C1NC2(CCCCC2)NN1c1ccccc1 | 13.2
NNC(=O)C(O)C(O)C(=O)NN (centres undefined) | 1.94
O=C(CCCCCN1C(=O)c2ccccc2C1=O)NCc1ccccn1 | 9.55
Nc1ccc(CN2CCCC2)cc1 | 7.04
O=Cc1ccc2cccnc2c1 | 8.85
CN(C)CCCNCCCN(C)C | 7.49
O=C1CCCCCN1CP(=O)(O)CCc1ccccc1 | 9
NCC1CCCCC1 | 8.08
O=C(NCCCCc1ccccc1)C(=O)NCc1ccco1 | 14.3
CC1(C)CC(NCC(=O)OC2CCCCC2)CC(C)(C)N1 | 8.55
COc1cc(CNC(=O)Nc2ccccc2)cc(OC)c1OC | 11.3
CC(=O)Nc1ccc(C2=NNC(c3ccccc3)C2)cc1 (centres undefined) | 10.3
CNCc1cccc(OC)c1OC | 7.9
CCC(N)=O | 2.3
CN(C)c1ccc(CCN)cc1 | 7.22
COc1ccc(-c2oc3ccccc3c(=O)c2OC)cc1OC | 13.4
